Test results published in publication PMC6005341, “Identification of “sarsasapogenin-aglyconed” timosaponins as novel Aβ-lowering modulators of amyloid precursor protein processing” (Chemical Science, 2016).
Where two headings read alike, the source gives them in different places.

Tests used:
[1] = test system: Aβ42 production in N2A-APPswe cells; experiment: Aβ42 in conditioned medium of N2A-APPswe cells by ELISA, 18 h treatment; type: cell-based; details: for IC50: mean ± standard deviation, n ≥ 3
From the text: Sigma-Aldrich Chemical Co. unless otherwise specified. SSG (1) was purchased from Wako Pure Chemical Industries, Ltd. Diosgenin (6), Dioscin (9), Polyphyllin D (10), Timosaponin BI (22) and Timosaponin BII (23) were purchased from Chengdu Must Bio-Technology Co.
Ltd. Yamogenin (7) was bought from Ambinter c/o Greenpharma while Smilagenin (24) was bought from Steraloids Inc. Substances dissolved in DMSO as stock solutions. Cell culture medium constituents were purchased from Life Technologies, Inc.
Cell culture: Neuro-2A cells expressing Swedish mutants of APP (N2A-APPswe provided by Prof. Yifan Han, The Hong Kong Polytechnic University)1 was cultured in minimal essential medium with 2 mM glutamine, 2 mM pyruvate and 10% fetal bovine serum. […]
(§1) Aβ ELISA: Aβ concentrations in conditioned medium were assayed using ELISA kits for […]

[2] = test system: Aβ40 and Aβ38 in N2A-APPswe cells; experiment: Aβ40 and Aβ38 in conditioned medium of N2A-APPswe cells by ELISA; type: cell-based; details: compared with Aβ42
Description: as §1

Neuro-2A cells = experiment: Neurite outgrowth, type III β-tubulin immunostaining; type: cell-based; details: at concentrations that lower Aβ production, 18 h
Description: Immunofluorescence examination of neurite outgrowth: Neuro-2A cells were seeded at 1×105 per glass bottom dishes. After treatment, cells were fixed with 4% paraformaldyde for 10 min, permeabilized with 0.1% Triton X-100, and then blocked with 1% BSA in PBS.
The cells were incubated with monoclonal antibody raised against type III β-tubulin (Sigma) for 1 h followed by Alexa488 conjugated secondary antibody. Neurite morphology was examined under fluorescence microscope. […]

[3] = test system: brain Aβ / amyloid in APPswe transgene; details: oral 25 mg/kg for 18 h, ref FASEB J. (2006) 20: E599; cited from earlier work
[4] = N2a-APPswe, read-out: IC50 in lowering Aβ42 production, N2A-APPswe cells
[5] = N2A-APPswe cells, read-out: IC50 in lowering Aβ42 production

Row | Compound | IC50 [1, 4] | Aβ42-lowering effect (in words) ([1]; N2A-APPswe cells) | further results
1 | C[C@@H]1CC[C@@]2(OC1)O[C@H]1C[C@H]3[C@@H]4C[C@H](O)[C@H]5C[C@@H](O)CC[C@]5(C)[C@H]4CC[C@]3(C)[C@H]1[C@@H]2C [5α-H, 6α-OH diosgenin (15), 5α-H, 6α-OH diosgenin] | > 100 µM |  | 
2 | C[C@H]1CC[C@@]2(OC1)O[C@H]1C[C@H]3[C@@H]4C[C@H](O)[C@H]5C[C@@H](O)CC[C@]5(C)[C@H]4CC[C@]3(C)[C@H]1[C@@H]2C [5α-H, 6α-OH yamogenin (17), 5α-H, 6α-OH yamogenin] | > 100 µM |  | 
3 | C[C@@H]1CC[C@@]2(OC1)O[C@H]1C[C@H]3[C@@H]4C[C@@H](O)[C@@H]5C[C@@H](O)CC[C@]5(C)[C@H]4CC[C@]3(C)[C@H]1[C@@H]2C [5β-H, 6β-OH diosgenin (16), 5β-H, 6β-OH diosgenin] | > 100 µM | ineffective | 
4 | C[C@H]1CC[C@@]2(OC1)O[C@H]1C[C@H]3[C@@H]4C[C@@H](O)[C@@H]5C[C@@H](O)CC[C@]5(C)[C@H]4CC[C@]3(C)[C@H]1[C@@H]2C [5β-H, 6β-OH yamogenin (18), 5β-H, 6β-OH yamogenin] | 45 ± 4 µM |  | 
5 | C[C@H]1CC[C@@]2(OC1)O[C@H]1C[C@H]3[C@@H]4CC[C@@H]5C[C@@H](O[C@@H]6O[C@H](CO)[C@@H](O)[C@H](O)[C@H]6O)CC[C@]5(C)[C@H]4CC[C@]3(C)[C@H]1[C@@H]2C [AA (5), Asparagoside A] | ~6 µM | effectively lowered | effect on Aβ40 and Aβ38 [2]: much smaller effect
6 | C[C@@H]1CC[C@@]2(OC1)O[C@H]1C[C@H]3[C@@H]4CC=C5C[C@@H](O[C@@H]6O[C@H](CO)[C@H](O)[C@H](O)[C@H]6O)CC[C@]5(C)[C@H]4CC[C@]3(C)[C@H]1[C@@H]2C [Capsicoside A3 (8), capsicoside A3] |  |  | IC50 [1, 5]: > 100 µM
7 | C[C@@H]1CC[C@@]2(OC1)O[C@H]1C[C@H]3[C@@H]4CC=C5C[C@@H](O[C@@H]6O[C@H](CO)[C@@H](O[C@@H]7O[C@@H](C)[C@H](O)[C@@H](O)[C@H]7O)[C@H](O)[C@H]6O[C@@H]6O[C@@H](C)[C@H](O)[C@@H](O)[C@H]6O)CC[C@]5(C)[C@H]4CC[C@]3(C)[C@H]1[C@@H]2C [Compound 9, dioscin] |  | insignificant Aβ42-lowering effects | 
8 | C[C@@H]1CC[C@@]2(OC1)O[C@H]1C[C@H]3[C@@H]4CC[C@H]5C[C@@H](O[C@@H]6O[C@H](CO)[C@@H](O[C@@H]7O[C@@H](C)[C@H](O)[C@@H](O)[C@H]7O)[C@H](O)[C@H]6O[C@@H]6O[C@@H](C)[C@H](O)[C@@H](O)[C@H]6O)CC[C@]5(C)[C@H]4CC[C@]3(C)[C@H]1[C@@H]2C [Compound 11, dihydrodioscin] |  | insignificant Aβ42-lowering effects | 
9 | C[C@H](CO)CC[C@H]1O[C@H]2C[C@H]3[C@@H]4CC[C@@H]5C[C@@H](O)CC[C@]5(C)[C@H]4CC[C@]3(C)[C@H]2[C@@H]1C [Dihydrosarsasapogenin (21), dihydrosarsasapogenin] | > 100 µM |  | 
10 | C[C@@H]1CC[C@@]2(OC1)O[C@H]1C[C@H]3[C@@H]4CC=C5C[C@@H](O)CC[C@]5(C)[C@H]4CC[C@]3(C)[C@H]1[C@@H]2C [Diosgenin (6), diosgenin] |  | no effect | IC50 [1, 5]: > 100 µM; neurite outgrowth (Neuro-2A cells): not shared
11 | C[C@H]1CC[C@@]2(OC1)O[C@H]1C[C@H]3[C@@H]4CC[C@@H]5C[C@H](O)CC[C@]5(C)[C@H]4CC[C@]3(C)[C@H]1[C@@H]2C [Episarsasapogenin (20), episarsasapogenin] | > 100 µM | inactive | neurite outgrowth (Neuro-2A cells): not shared
12 | CC(C)[C@@H](C)/C=C/[C@@H](C)[C@H]1CC[C@H]2C3=CC=C4C[C@@H](O)CC[C@]4(C)[C@H]3CC[C@]12C [Ergosterol, reference compound] |  |  | IC50 [1, 5]: > 100 µM
13 | CC1CCC2(OC1)OC1CC3C4CCC5CC(OCC(=O)O)CCC5(C)C4CCC3(C)C1C2C (stereo not shown) [Ethereal SSG (29), ethereal SSG] | 27 ± 8 µM |  | 
14 | C[C@H]1CC[C@@]2(OC1)O[C@H]1C[C@H]3[C@@H]4CC[C@H]5C[C@@H](O)CC[C@]5(C)[C@H]4CC[C@]3(C)[C@H]1[C@@H]2C [Neotigogenin (14), neotigogenin] | > 100 µM | ineffective | neurite outgrowth (Neuro-2A cells): not shared
15 | CC(C)=CCC[C@](C)(O)[C@H]1CC[C@]2(C)[C@@H]1[C@H](O)C[C@@H]1[C@@]3(C)CC[C@H](O[C@@H]4O[C@H](CO)[C@@H](O)[C@H](O)[C@H]4O[C@@H]4O[C@H](CO)[C@@H](O)[C@H](O)[C@H]4O)C(C)(C)[C@@H]3CC[C@]12C [Rg3] |  |  | Brain Aβ1-42 reduced by [3]: 30%
16 | C[C@H]1CC[C@@]2(OC1)O[C@H]1C[C@H]3[C@@H]4CC[C@@H]5CC(=O)CC[C@]5(C)[C@H]4CC[C@]3(C)[C@H]1[C@@H]2C [Sarsasapogenone (19), sarsasapogenone] | 50 ± 5 µM | comparable effect to 1 | 
17 | C[C@@H]1CC[C@@]2(OC1)O[C@H]1C[C@H]3[C@@H]4CC[C@@H]5C[C@@H](O)CC[C@]5(C)[C@H]4CC[C@]3(C)[C@H]1[C@@H]2C [Smilagenin (24), smilagenin] | > 100 µM | ineffective | neurite outgrowth (Neuro-2A cells): not shared
18 | C[C@H]1CC[C@@]2(OC1)O[C@H]1C[C@H]3[C@@H]4CC[C@@H]5C[C@@H](O[C@@H]6O[C@H](CO)[C@H](O[C@@H]7O[C@H](CO)[C@@H](O)[C@H](O)[C@H]7O)[C@H](O)[C@H]6O[C@@H]6O[C@H](CO)[C@@H](O)[C@H](O)[C@H]6O)CC[C@]5(C)[C@H]4CC[C@]3(C)[C@H]1[C@@H]2C [TAV (4), timosaponin A V] | ~4.2 µM | effectively lowered | effect on Aβ40 and Aβ38 [2]: much smaller effect
19 | C[C@@H]1CC[C@@]2(OC1)O[C@H]1C[C@H]3[C@@H]4CC[C@H]5C[C@@H](O)CC[C@]5(C)[C@H]4CC[C@]3(C)[C@H]1[C@@H]2C [Tigogenin (13), tigogenin] | > 100 µM | ineffective | neurite outgrowth (Neuro-2A cells): not shared
20 | CO[C@]1(CC[C@H](C)CO[C@@H]2O[C@H](CO)[C@@H](O)[C@H](O)[C@H]2O)O[C@H]2C[C@H]3[C@@H]4CC[C@@H]5C[C@@H](O[C@@H]6O[C@H](CO)[C@H](O)[C@H](O)[C@H]6O[C@@H]6O[C@H](CO)[C@@H](O)[C@H](O)[C@H]6O)CC[C@]5(C)[C@H]4CC[C@]3(C)[C@H]2[C@@H]1C [Timosaponin B I (22), Timosaponin B I] | > 100 µM | ineffective | 
21 | C[C@H]1CC[C@@]2(OC1)O[C@H]1C[C@H]3[C@@H]4CC=C5C[C@@H](O)CC[C@]5(C)[C@H]4CC[C@]3(C)[C@H]1[C@@H]2C [Yamogenin (7), yamogenin] |  | no effect | IC50 [1, 5]: > 100 µM; neurite outgrowth (Neuro-2A cells): not shared
22 | COC1OC(CNC(=O)COC2CCC3(C)C(CCC4C3CCC3(C)C4CC4OC5(CCC(C)CO5)C(C)C43)C2)C(O)C(O)C1O (stereo not drawn) [α-OMe SSG (32), α-OMe SSG] | 7.2 ± 2.2 µM |  | 
23 | COC1OC(Cn2cc(COC3CCC4(C)C(CCC5C4CCC4(C)C5CC5OC6(CCC(C)CO6)C(C)C54)C3)nn2)C(O)C(O)C1O (stereo not drawn) [α-OMe triazole SSG (28), α-OMe triazole SSG] | 6.5 ± 2.1 µM |  | 
24 | COC1OC(CNC(=O)COC2CCC3(C)C(CCC4C3CCC3(C)C4CC4OC5(CCC(C)CO5)C(C)C43)C2)C(O)C(O)C1O (stereo not drawn) [β-OMe SSG (33), β-OMe SSG] |  |  | IC50 ([1]; read-out: IC50 in lowering Aβ42 production, N2A-APPswe cells): 9.3 ± 3.5 µM
